{"source": "patent US20230346760A1", "about": "“AGENTS TO PREVENT TISSUE DAMAGE FROM CLOSTRIDIUM DIFFICILE INFECTIONS BY INHIBITION OF THE GUT-DAMAGING BACTERIAL TOXINS TCDA AND TCDB” (ALBERT EINSTEIN COLLEGE OF MEDICINE, priority 2020, published 2023)", "key": {"TcdB": {"biological_target": "TcdB (Clostridioides difficile, UniProt P18177)", "sequence (P18177 1-543 limits assumed)": "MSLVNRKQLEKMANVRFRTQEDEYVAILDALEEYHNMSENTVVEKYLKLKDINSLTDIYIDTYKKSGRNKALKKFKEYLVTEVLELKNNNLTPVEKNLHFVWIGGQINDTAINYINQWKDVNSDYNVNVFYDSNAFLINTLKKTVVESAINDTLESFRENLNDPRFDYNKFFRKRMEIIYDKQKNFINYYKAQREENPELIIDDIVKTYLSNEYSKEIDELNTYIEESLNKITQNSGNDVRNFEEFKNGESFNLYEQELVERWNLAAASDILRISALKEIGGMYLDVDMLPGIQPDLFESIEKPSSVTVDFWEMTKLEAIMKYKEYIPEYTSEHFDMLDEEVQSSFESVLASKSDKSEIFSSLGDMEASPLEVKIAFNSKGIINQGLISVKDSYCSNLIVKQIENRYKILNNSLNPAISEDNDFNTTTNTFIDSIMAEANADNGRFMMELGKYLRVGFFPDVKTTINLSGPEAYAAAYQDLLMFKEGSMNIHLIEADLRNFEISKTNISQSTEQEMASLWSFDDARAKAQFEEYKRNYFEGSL", "test": "Kinetic inhibition of TcdB glucosyltransferase / UDP-glucose hydrolysis", "type": "biochemical, Clostridium difficile"}, "[1]": {"system": "Rac1 glucosylation by TcdA in IMR90 cells", "type": "cell-based"}, "[2]": {"system": "TcdB induced cell rounding of CHO-K1 cells", "type": "cell-based"}, "TcdB-GTD": {"biological_target": "T1, TcdB-GTD (Clostridioides difficile, UniProt P18177)", "T1 construct": "(50 mM HEPES pH 7.5, 100 mM KCl, 4 mM MgCl2, 1 mM MnCl2) and 40 μM TcdB-GTD", "T1 sequence (P18177 2-543 limits assumed)": "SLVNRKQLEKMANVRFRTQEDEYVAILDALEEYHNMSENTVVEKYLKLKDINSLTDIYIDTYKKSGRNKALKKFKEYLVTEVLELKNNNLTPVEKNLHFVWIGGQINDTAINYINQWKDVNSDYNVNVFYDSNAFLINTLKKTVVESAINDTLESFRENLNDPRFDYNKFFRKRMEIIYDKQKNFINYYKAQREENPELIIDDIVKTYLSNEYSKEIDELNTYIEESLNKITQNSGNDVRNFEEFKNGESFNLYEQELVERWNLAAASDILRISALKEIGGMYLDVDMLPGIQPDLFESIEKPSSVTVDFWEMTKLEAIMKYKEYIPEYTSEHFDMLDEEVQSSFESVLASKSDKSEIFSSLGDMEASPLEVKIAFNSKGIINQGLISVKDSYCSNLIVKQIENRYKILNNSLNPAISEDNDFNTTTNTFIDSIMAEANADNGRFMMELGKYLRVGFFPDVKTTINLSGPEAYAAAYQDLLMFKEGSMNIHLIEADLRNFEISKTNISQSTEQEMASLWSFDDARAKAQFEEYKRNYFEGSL", "type": "binding, Clostridium difficile"}, "[3]": {"system": "TcdA induced rounding of CHO-K1 cells", "type": "cell-based"}, "[4]": {"system": "Rac1 glucosylation by TcdB in IMR90 cells", "type": "cell-based"}, "TcdA [5]": {"biological_target": "T2, TcdA (Clostridioides difficile, UniProt P16154)", "T2 sequence (P16154 whole entry, looked up)": "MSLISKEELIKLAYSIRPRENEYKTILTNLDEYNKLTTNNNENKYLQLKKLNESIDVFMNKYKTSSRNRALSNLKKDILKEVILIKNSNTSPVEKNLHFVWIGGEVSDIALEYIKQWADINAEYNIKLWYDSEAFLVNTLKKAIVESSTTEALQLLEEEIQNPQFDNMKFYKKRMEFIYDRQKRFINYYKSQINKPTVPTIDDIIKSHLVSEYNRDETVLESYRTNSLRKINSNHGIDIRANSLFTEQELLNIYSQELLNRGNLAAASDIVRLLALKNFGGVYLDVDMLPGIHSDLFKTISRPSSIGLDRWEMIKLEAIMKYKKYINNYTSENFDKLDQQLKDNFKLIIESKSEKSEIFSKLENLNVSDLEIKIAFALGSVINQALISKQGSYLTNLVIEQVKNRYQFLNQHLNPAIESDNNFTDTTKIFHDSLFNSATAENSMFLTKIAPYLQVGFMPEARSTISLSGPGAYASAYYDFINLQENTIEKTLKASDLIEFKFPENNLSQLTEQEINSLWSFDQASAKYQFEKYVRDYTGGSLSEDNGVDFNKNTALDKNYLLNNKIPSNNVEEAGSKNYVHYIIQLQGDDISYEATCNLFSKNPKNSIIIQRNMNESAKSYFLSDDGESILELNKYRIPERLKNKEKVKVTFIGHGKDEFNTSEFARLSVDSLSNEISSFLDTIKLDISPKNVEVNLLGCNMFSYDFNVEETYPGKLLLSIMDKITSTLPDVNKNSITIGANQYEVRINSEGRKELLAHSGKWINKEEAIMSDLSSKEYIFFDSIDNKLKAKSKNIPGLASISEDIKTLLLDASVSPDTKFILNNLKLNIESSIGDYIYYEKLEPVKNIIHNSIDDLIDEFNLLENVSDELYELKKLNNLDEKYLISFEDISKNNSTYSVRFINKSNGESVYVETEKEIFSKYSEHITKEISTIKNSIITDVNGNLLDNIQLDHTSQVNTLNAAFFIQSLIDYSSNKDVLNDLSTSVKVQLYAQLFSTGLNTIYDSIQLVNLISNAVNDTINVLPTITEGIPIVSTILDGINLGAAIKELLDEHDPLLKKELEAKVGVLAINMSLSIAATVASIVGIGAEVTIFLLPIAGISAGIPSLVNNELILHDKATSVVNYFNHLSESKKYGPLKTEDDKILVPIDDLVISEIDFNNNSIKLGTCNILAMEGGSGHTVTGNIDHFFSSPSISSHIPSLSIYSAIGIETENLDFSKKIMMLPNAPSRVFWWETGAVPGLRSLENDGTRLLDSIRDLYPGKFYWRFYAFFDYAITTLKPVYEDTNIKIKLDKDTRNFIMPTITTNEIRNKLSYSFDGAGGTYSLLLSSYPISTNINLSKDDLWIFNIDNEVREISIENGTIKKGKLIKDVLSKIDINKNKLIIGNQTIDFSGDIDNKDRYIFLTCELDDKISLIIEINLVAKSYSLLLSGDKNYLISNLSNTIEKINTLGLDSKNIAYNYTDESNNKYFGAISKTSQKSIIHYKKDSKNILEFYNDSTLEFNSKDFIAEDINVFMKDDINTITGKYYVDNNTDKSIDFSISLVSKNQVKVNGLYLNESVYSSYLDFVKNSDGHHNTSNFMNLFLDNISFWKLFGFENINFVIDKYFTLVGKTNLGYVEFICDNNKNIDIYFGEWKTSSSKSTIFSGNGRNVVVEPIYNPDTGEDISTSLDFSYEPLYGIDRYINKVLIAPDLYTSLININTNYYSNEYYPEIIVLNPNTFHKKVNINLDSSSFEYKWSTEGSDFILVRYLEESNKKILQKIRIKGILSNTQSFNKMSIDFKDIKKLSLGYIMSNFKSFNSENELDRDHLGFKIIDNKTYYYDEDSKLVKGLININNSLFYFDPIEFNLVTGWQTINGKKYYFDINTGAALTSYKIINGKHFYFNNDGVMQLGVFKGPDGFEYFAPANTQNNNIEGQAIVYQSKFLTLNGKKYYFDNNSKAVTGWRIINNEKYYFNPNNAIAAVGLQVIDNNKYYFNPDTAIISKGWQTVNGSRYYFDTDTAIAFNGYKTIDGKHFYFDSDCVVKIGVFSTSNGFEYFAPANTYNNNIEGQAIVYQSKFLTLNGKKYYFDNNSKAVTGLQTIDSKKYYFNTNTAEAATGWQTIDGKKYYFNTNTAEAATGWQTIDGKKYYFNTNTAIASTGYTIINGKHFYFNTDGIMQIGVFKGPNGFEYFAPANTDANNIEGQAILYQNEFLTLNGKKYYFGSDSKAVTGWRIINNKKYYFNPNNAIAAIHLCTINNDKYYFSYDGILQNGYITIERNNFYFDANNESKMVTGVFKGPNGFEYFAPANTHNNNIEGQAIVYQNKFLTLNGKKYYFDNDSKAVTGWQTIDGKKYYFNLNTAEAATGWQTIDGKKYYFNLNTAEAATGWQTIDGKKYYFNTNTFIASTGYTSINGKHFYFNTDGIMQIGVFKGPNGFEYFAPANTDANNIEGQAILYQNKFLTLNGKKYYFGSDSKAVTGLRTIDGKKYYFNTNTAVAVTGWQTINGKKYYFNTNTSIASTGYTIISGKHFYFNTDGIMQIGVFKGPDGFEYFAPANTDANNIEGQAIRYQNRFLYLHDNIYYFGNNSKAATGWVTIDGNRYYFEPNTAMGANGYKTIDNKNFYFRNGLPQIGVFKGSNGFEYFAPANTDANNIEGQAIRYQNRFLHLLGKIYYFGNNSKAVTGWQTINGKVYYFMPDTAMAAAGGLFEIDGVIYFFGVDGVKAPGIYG", "test": "biochemical", "type": "binding, Clostridium difficile"}, "[6]": {"system": "TcdA induced apoptosis in HT-29 cells", "type": "cell-based"}, "TcdA [7]": {"biological_target": "T2, TcdA", "type": "biochemical, Clostridium difficile"}}, "note": "Entries after “also recorded” stand apart in the source; their conditions may differ. Read-outs that look alike come from different tables or passages of the source.", "data": [{"compound": "O=C1O[C@H](CO)[C@@H](O)[C@H](O)[C@H]1O", "note": "[Gluconolactone, reference compound]", "values": [{"measurement": "inhibition of Tcds (in words)", "setting": "TcdB", "value": "poor inhibitor"}]}, {"compound": "OC[C@H]1CNC[C@@H](O)[C@@H]1O", "note": "[Isofagomine, (3R,4R,5R)-5-(hydroxymethyl)-3,4-piperidinediol]", "values": [{"measurement": "un-glucosylated Rac1 (Mab102) compared to total Rac1", "setting": "[1]", "value": "dose-dependent maintenance of un-glucosylated Rac1"}, {"measurement": "protection from cell rounding", "setting": "[2]", "value": "sufficient to protect CHO-K1 cells from rounding; also recorded: prevent rounding"}, {"measurement": "ITC binding", "setting": "TcdB-GTD", "value": "no binding"}, {"measurement": "Kd", "setting": "TcdB-GTD", "value": "66.9 ± 19.7", "unit": "nM"}, {"measurement": "N", "setting": "TcdB-GTD", "value": "0.5±0.01"}, {"measurement": "ΔG", "setting": "TcdB-GTD", "value": "-9.8 ± 0.3", "unit": "kcal/mol"}, {"measurement": "ΔH", "setting": "TcdB-GTD", "value": "-10.3 ± 0.1", "unit": "kcal/mol"}, {"measurement": "−TΔS", "setting": "TcdB-GTD", "value": "0.5 ± 0.2", "unit": "kcal/mol"}, {"measurement": "protection from cell rounding", "setting": "[3]", "value": "prevent rounding"}, {"measurement": "Ki", "setting": "TcdB; in the presence of 2×Ki for UDP, read-out: kinetic Ki (apparent Ki)", "value": 290, "unit": "nM"}, {"measurement": "increase of affinity", "setting": "TcdB; when UDP is present at 2×Ki", "value": 3, "unit": "fold"}, {"measurement": "mechanism of inhibition", "setting": "TcdB; with respect to UDP-glucose", "value": "uncompetitive"}, {"measurement": "un-glucosylated Rac1 (Mab102) compared to total Rac1", "setting": "[4]", "value": "dose-dependent maintenance of un-glucosylated Rac1"}, {"measurement": "Kd", "setting": "TcdA [5]", "value": 7, "unit": "nM"}, {"measurement": "apoptosis (Annexin V signal)", "setting": "[6]", "value": "prevented apoptosis"}]}, {"compound": "OC[C@H]1CNC(O)[C@@H](O)[C@@H]1O", "note": "(stereo partly shown) [Noeuromycin, noeuromycin]", "values": [{"measurement": "un-glucosylated Rac1 (Mab102) compared to total Rac1", "setting": "[1]", "value": "dose-dependent maintenance of un-glucosylated Rac1"}, {"measurement": "protection from cell rounding", "setting": "[2]", "value": "prevent rounding"}, {"measurement": "Kd", "setting": "TcdB-GTD", "value": "180 ± 69.7", "unit": "nM"}, {"measurement": "N", "setting": "TcdB-GTD", "value": "1.2±0.1"}, {"measurement": "ΔG", "setting": "TcdB-GTD", "value": "-9.3 ± 0.3", "unit": "kcal/mol"}, {"measurement": "ΔH", "setting": "TcdB-GTD", "value": "-5.2 ± 0.1", "unit": "kcal/mol"}, {"measurement": "protection from cell rounding", "setting": "[3]", "value": "prevent rounding"}, {"measurement": "Ki", "setting": "TcdB; TcdB-UDP, read-out: Ki", "value": 4000, "unit": "nM"}, {"measurement": "un-glucosylated Rac1 (Mab102) compared to total Rac1", "setting": "[4]", "value": "dose-dependent maintenance of un-glucosylated Rac1"}, {"measurement": "apoptosis (Annexin V signal)", "setting": "[6]", "value": "prevented apoptosis"}, {"measurement": "Ki", "setting": "TcdA [7]", "value": 200, "unit": "nM"}]}, {"compound": "OC[C@H]1NC[C@H](O)[C@@H](O)[C@@H]1O", "note": "[deoxynorjirimycin, reference compound]", "values": [{"measurement": "inhibition of Tcds (in words)", "setting": "TcdB", "value": "poor inhibition"}]}]}
